According to patent US4360665A, “4"-N-(Substituted)-apramycin antibiotic derivatives and intermediates therefor” (Eli Lilly and Company, priority 1981, dated 1982):
Values after ≈ are worked out from the molar mass of the structure shown. Like-named read-outs stand apart in the source and are kept apart here.

What was measured:
[1] = tested on: Bordetella bronchiseptica 16; test: MIC by standard agar dilution test; format: cell-based; conditions: Bordetella bronchiseptica, 16, read-out: Minimum Inhibitory Concentration
Excerpt: (§1) The antibacterial activity of the antibiotic compounds of this invention is illustrated by the following in vitro and in vivo test data obtained with representative compounds. In Tables I and II, the minimum inhibitory concentration (MIC) for representative compounds against a wide range of gram-positive and gram-negative bacteria are presented. The MIC values were obtained by the standard agar dilution test.

[2] = tested on: Citrobacter freundii CF17; test: MIC by standard agar dilution test; format: cell-based; conditions: Table 1, read-out: Minimum Inhibitory Concentration
Excerpt: as §1

[3] = tested on: Enterobacter aerogenes C32; test: MIC by standard agar dilution test; format: cell-based; conditions: Klebsiella aerogenes, Table 1, read-out: Minimum Inhibitory Concentration
Excerpt: as §1

[4] = tested on: Enterobacter aerogenes EB17; test: MIC by standard agar dilution test; format: cell-based; conditions: Klebsiella aerogenes, Table 1, read-out: Minimum Inhibitory Concentration
Excerpt: as §1

[5] = tested on: Enterobacter aerogenes EB6; test: MIC by standard agar dilution test; format: cell-based; conditions: Klebsiella aerogenes; Table II; Enterobacter aerogenes EB6; agar dilution; read-out: Minimum Inhibitory Concentration
Excerpt: as §1

[6] = tested on: Enterobacter aerogenes X68; test: MIC by standard agar dilution test; format: cell-based; conditions: Klebsiella aerogenes, Table 1, read-out: Minimum Inhibitory Concentration
Excerpt: as §1

[7] = tested on: Enterobacter cloacae 265A; test: MIC by standard agar dilution test; format: cell-based; conditions: Table 1, read-out: Minimum Inhibitory Concentration
Excerpt: as §1

[8] = tested on: Enterobacter cloacae EB24; test: MIC by standard agar dilution test; format: cell-based; conditions: Table II; Enterobacter cloacae EB24; agar dilution; read-out: Minimum Inhibitory Concentration
Excerpt: as §1

Enterobacter cloacae EB5 = test: MIC by standard agar dilution test; format: cell-based; conditions: Table 1, read-out: Minimum Inhibitory Concentration
Excerpt: as §1

[9] = tested on: Enterobacter cloacae EN453; test: MIC by standard agar dilution test; format: cell-based; conditions: Table II, read-out: Minimum Inhibitory Concentration
Excerpt: as §1

Escherichia coli EC14 = test: MIC by standard agar dilution test; format: cell-based; conditions: Table 1, read-out: Minimum Inhibitory Concentration
Excerpt: as §1

Escherichia coli N10 = test: MIC by standard agar dilution test; format: cell-based; conditions: Table 1, read-out: Minimum Inhibitory Concentration
Excerpt: as §1

Escherichia coli TEM = test: MIC by standard agar dilution test; format: cell-based; conditions: read-out: Minimum Inhibitory Concentration
Excerpt: as §1

[10] = tested on: Haemophilus influenzae HOLT; test: MIC by standard agar dilution test; format: cell-based; conditions: Table 1, read-out: Minimum Inhibitory Concentration
Excerpt: as §1

[11] = tested on: Haemophilus influenzae R252; test: MIC by standard agar dilution test; format: cell-based; conditions: Table 1; Haemophilus influenzae R252; agar dilution; read-out: Minimum Inhibitory Concentration
Excerpt: as §1

[12] = tested on: Klebsiella pneumoniae KAE; test: MIC by standard agar dilution test; format: cell-based; conditions: Table 1, read-out: Minimum Inhibitory Concentration
Excerpt: as §1

[13] = tested on: Klebsiella pneumoniae KL2; test: MIC by standard agar dilution test; format: cell-based; conditions: Table II, read-out: Minimum Inhibitory Concentration
Excerpt: as §1

[14] = tested on: Klebsiella pneumoniae X26; test: MIC by standard agar dilution test; format: cell-based; conditions: Table 1, read-out: Minimum Inhibitory Concentration
Excerpt: as §1

Proteus inconstans PR33 = test: MIC by standard agar dilution test; format: cell-based; conditions: Providencia alcalifaciens, Table 1, read-out: Minimum Inhibitory Concentration
Excerpt: as §1

Proteus inconstans PV25 = test: MIC by standard agar dilution test; format: cell-based; conditions: Providencia alcalifaciens, Table II, read-out: Minimum Inhibitory Concentration
Excerpt: as §1

Proteus morganii PR15 = test: MIC by standard agar dilution test; format: cell-based; conditions: Morganella morganii, Table 1, read-out: Minimum Inhibitory Concentration
Excerpt: as §1

Proteus morganii PR1 = test: MIC by standard agar dilution test; format: cell-based; conditions: Morganella morganii, Table II, read-out: Minimum Inhibitory Concentration
Excerpt: as §1

Proteus rettgeri C24 = test: MIC by standard agar dilution test; format: cell-based; conditions: Providencia rettgeri, Table 1, read-out: Minimum Inhibitory Concentration
Excerpt: as §1

Proteus rettgeri PR2 = test: MIC by standard agar dilution test; format: cell-based; conditions: Providencia rettgeri, Table II, read-out: Minimum Inhibitory Concentration
Excerpt: as §1

Proteus rettgeri PR7 = test: MIC by standard agar dilution test; format: cell-based; conditions: Providencia rettgeri, Table 1, read-out: Minimum Inhibitory Concentration
Excerpt: as §1

[15] = tested on: Pseudomonas aeruginosa 4276; test: MIC by standard agar dilution test; format: cell-based; conditions: Table II, read-out: Minimum Inhibitory Concentration
Excerpt: as §1

[16] = tested on: Pseudomonas aeruginosa PI23; test: MIC by standard agar dilution test; format: cell-based; conditions: Table II, read-out: Minimum Inhibitory Concentration
Excerpt: as §1

[17] = tested on: Pseudomonas aeruginosa Ps15; test: MIC by standard agar dilution test; format: cell-based; conditions: Table II, read-out: Minimum Inhibitory Concentration
Excerpt: as §1

[18] = tested on: Pseudomonas aeruginosa Ps18; test: MIC by standard agar dilution test; format: cell-based; conditions: Table 1; Pseudomonas aeruginosa Ps18; agar dilution; read-out: Minimum Inhibitory Concentration
Excerpt: as §1

[19] = tested on: Pseudomonas aeruginosa Ps25; test: MIC by standard agar dilution test; format: cell-based; conditions: Table II, read-out: Minimum Inhibitory Concentration
Excerpt: as §1

[20] = tested on: Pseudomonas aeruginosa Ps9; test: MIC by standard agar dilution test; format: cell-based; conditions: Table II, read-out: Minimum Inhibitory Concentration
Excerpt: as §1

[21] = tested on: Pseudomonas aeruginosa SF-2; test: MIC by standard agar dilution test; format: cell-based; conditions: SF2, Table II, read-out: Minimum Inhibitory Concentration
Excerpt: as §1

[22] = tested on: Pseudomonas aeruginosa X239; test: MIC by standard agar dilution test; format: cell-based
Excerpt: as §1

[23] = tested on: Pseudomonas aeruginosa X48; test: MIC by standard agar dilution test; format: cell-based; conditions: Table II, read-out: Minimum Inhibitory Concentration
Excerpt: as §1

[24] = tested on: Pseudomonas aeruginosa X528; test: MIC by standard agar dilution test; format: cell-based
Excerpt: as §1

[25] = tested on: Salmonella heidelberg X514; test: MIC by standard agar dilution test; format: cell-based; conditions: Salmonella enterica, Table 1, read-out: Minimum Inhibitory Concentration
Excerpt: as §1

[26] = tested on: Salmonella typhimurium 1335; test: MIC by standard agar dilution test; format: cell-based; conditions: Salmonella enterica, Table 1, read-out: Minimum Inhibitory Concentration
Excerpt: as §1

Serratia marcescens SE2 = test: MIC by standard agar dilution test; format: cell-based; conditions: Table II, read-out: Minimum Inhibitory Concentration
Excerpt: as §1

Serratia marcescens SE3 = test: MIC by standard agar dilution test; format: cell-based
Excerpt: as §1

Serratia marcescens X99 = test: MIC by standard agar dilution test; format: cell-based
Excerpt: as §1

Shigella sonnei N9 = test: MIC by standard agar dilution test; format: cell-based; conditions: Table 1, read-out: Minimum Inhibitory Concentration
Excerpt: as §1

[27] = tested on: Staphylococcus aureus S13E; test: MIC by standard agar dilution test; format: cell-based; conditions: read-out: Minimum Inhibitory Concentration
Excerpt: as §1

[28] = tested on: Staphylococcus aureus V41; test: MIC by standard agar dilution test; format: cell-based; conditions: Table 1, read-out: Minimum Inhibitory Concentration
Excerpt: as §1

[29] = tested on: Staphylococcus aureus X1.1; test: MIC by standard agar dilution test; format: cell-based; conditions: Table 1, read-out: Minimum Inhibitory Concentration
Excerpt: as §1

[30] = tested on: Staphylococcus aureus X400; test: MIC by standard agar dilution test; format: cell-based; conditions: Table 1, read-out: Minimum Inhibitory Concentration
Excerpt: as §1

[31] = tested on: Staphylococcus epidermidis EPI1; test: MIC by standard agar dilution test; format: cell-based; conditions: Table 1, read-out: Minimum Inhibitory Concentration
Excerpt: as §1

[32] = tested on: Staphylococcus epidermidis EPI2; test: MIC by standard agar dilution test; format: cell-based; conditions: Table 1, read-out: Minimum Inhibitory Concentration
Excerpt: as §1

[33] = tested on: Streptococcus group D 9960; test: MIC by standard agar dilution test; format: cell-based; conditions: D9960, Table 1, read-out: Minimum Inhibitory Concentration
Excerpt: as §1

[34] = tested on: Streptococcus group D X66; test: MIC by standard agar dilution test; format: cell-based; conditions: DX66, Table 1, read-out: Minimum Inhibitory Concentration
Excerpt: as §1

[35] = tested on: Streptococcus pneumoniae Park 1; test: MIC by standard agar dilution test; format: cell-based; conditions: PARK1, Table 1, read-out: Minimum Inhibitory Concentration
Excerpt: as §1

[36] = tested on: Streptococcus pyogenes C203; test: MIC by standard agar dilution test; format: cell-based; conditions: Table 1, read-out: Minimum Inhibitory Concentration
Excerpt: as §1

[37] = tested on: Staphlyococcus aureus 3055; test: Subcutaneous therapy of experimental bacterial infection in mice; format: in vivo; conditions: Mus musculus, sc, subcutaneous doses at 1 and 5 hours postinfection, read-out: Effective Dose (ED50), dose to protect 50 percent of the test animals
Protocol: Table III illustrates the effective dose (ED50, effective dose to protect 50 percent of the test animals) for a representative compound of this invention against an experimental bacterial infection in mice. | *mg/kg × 2 subcutaneous doses at 1 and 5 hours postinfection The ED50 value was determined as described by W. E. Wick et al., Journal of Bacteriology, 81 [No. 2], 233-235 (1961).

## CN[C@@H]1[C@@H](O[C@H]2O[C@H](CO)[C@@H](NC(C)=O)[C@H](O)[C@H]2O)O[C@H]2C[C@@H](N)[C@@H](O[C@H]3[C@H](O)[C@@H](O)[C@H](N)C[C@@H]3N)O[C@@H]2[C@@H]1O [Test Compound 1, 4"-N-Acetylapramycin]
[1]
  MIC: 128 mg/L (≈ 220 µM)
[2]
  MIC: 32 mg/L (≈ 55 µM)
[3]
  MIC: 16 mg/L (≈ 27.5 µM)
[4]
  MIC: 16 mg/L (≈ 27.5 µM)
[5]
  MIC: 8 mg/L (≈ 13.8 µM)
[6]
  MIC: 16 mg/L (≈ 27.5 µM)
[7]
  MIC: 32 mg/L (≈ 55 µM)
[8]
  MIC: 8 mg/L (≈ 13.8 µM)
Enterobacter cloacae EB5
  MIC: 32 mg/L (≈ 55 µM)
[9]
  MIC: 8 mg/L (≈ 13.8 µM)
Escherichia coli EC14
  MIC: 16 mg/L (≈ 27.5 µM)
Escherichia coli N10
  MIC: 32 mg/L (≈ 55 µM)
Escherichia coli TEM
  MIC: 16 mg/L (≈ 27.5 µM)
[10]
  MIC: 16 mg/L (≈ 27.5 µM)
[11]
  MIC: 16 mg/L (≈ 27.5 µM)
[12]
  MIC: 16 mg/L (≈ 27.5 µM)
[13]
  MIC: 8 mg/L (≈ 13.8 µM)
[14]
  MIC: 16 mg/L (≈ 27.5 µM)
Proteus inconstans PR33
  MIC: 16 mg/L (≈ 27.5 µM)
Proteus inconstans PV25
  MIC: 8 mg/L (≈ 13.8 µM)
Proteus morganii PR15
  MIC: 32 mg/L (≈ 55 µM)
Proteus morganii PR1
  MIC: 8 mg/L (≈ 13.8 µM)
Proteus rettgeri C24
  MIC: 32 mg/L (≈ 55 µM)
Proteus rettgeri PR2
  MIC: 32 mg/L (≈ 55 µM)
Proteus rettgeri PR7
  MIC: 32 mg/L (≈ 55 µM)
[15]
  MIC: 32 mg/L (≈ 55 µM)
[16]
  MIC: > 128 mg/L
[17]
  MIC: 32 mg/L (≈ 55 µM)
[18]
  MIC: 16 mg/L (≈ 27.5 µM)
[19]
  MIC: 32 mg/L (≈ 55 µM)
[20]
  MIC: 128 mg/L (≈ 220 µM)
[21]
  MIC: 64 mg/L (≈ 110 µM)
[22]; X239, Table 1, read-out: Minimum Inhibitory Concentration
  MIC: 64 mg/L (≈ 110 µM)
[22]; X239, Table II, read-out: Minimum Inhibitory Concentration
  MIC: 32 mg/L (≈ 55 µM)
[23]
  MIC: 32 mg/L (≈ 55 µM)
[24]; Table 1
  Minimum Inhibitory Concentration: 64 µg/mL
[24]; Table II, read-out: Minimum Inhibitory Concentration
  MIC: 64 mg/L (≈ 110 µM)
[25]
  MIC: 32 mg/L (≈ 55 µM)
[26]
  MIC: 32 mg/L (≈ 55 µM)
Serratia marcescens SE2
  MIC: 8 mg/L (≈ 13.8 µM)
Serratia marcescens SE3; SE3, Table 1, read-out: Minimum Inhibitory Concentration
  MIC: 32 mg/L (≈ 55 µM)
Serratia marcescens SE3; SE3, Table II, read-out: Minimum Inhibitory Concentration
  MIC: 8 mg/L (≈ 13.8 µM)
Serratia marcescens X99; X99, Table 1, read-out: Minimum Inhibitory Concentration
  MIC: 16 mg/L (≈ 27.5 µM)
Serratia marcescens X99; X99, Table II, read-out: Minimum Inhibitory Concentration
  MIC: 4 mg/L (≈ 6.88 µM)
Shigella sonnei N9
  MIC: 32 mg/L (≈ 55 µM)
[27]
  MIC: 64 mg/L (≈ 110 µM)
[28]
  MIC: 64 mg/L (≈ 110 µM)
[29]
  MIC: 32 mg/L (≈ 55 µM)
[30]
  MIC: 128 mg/L (≈ 220 µM)
[31]
  MIC: 32 mg/L (≈ 55 µM)
[32]
  MIC: 64 mg/L (≈ 110 µM)
[33]
  MIC: > 128 mg/L
[34]
  MIC: > 128 mg/L
[35]
  MIC: 128 mg/L (≈ 220 µM)
[36]
  MIC: > 128 mg/L
[37]
  ED50: 9.4 mg/kg
